{
  "source": "patent US6538014B1",
  "about": "“Process for the aggrochemical treatment of rangelands” (Bayer CropScience, Inc., priority 1992, dated 2003)",
  "format_in_all_cases": "in vivo",
  "key": {"Chortoicetes terminifera": {"system": "Chortoicetes terminifera", "assay": "Grassland treatment, mortality of locusts", "conditions": "for Effectiveness (%) against the locust Chortoicetes terminifera, Persistence of action 5 DAT / Effectiveness (%) against the locust Chortoicetes terminifera, Persistence of action 10 DAT / Effectiveness (%) against the locust Chortoicetes terminifera, Persistence of action 20 DAT / Effectiveness (%) against the locust Chortoicetes terminifera, Persistence of action 30 DAT: infestation renewed 2 days before", "description": "(§1) A zone of grassland infested at a rate of 40 locusts (Chortoicetes terminifera) per m2 is treated, and the infestation is renewed 2 days before each effectiveness measurement. The results are observed by performing mortality measurements (=percentage of locusts killed). A remarkable persistence of action is observed."}, "Melanoplus sanguinipes": {"system": "Melanoplus sanguinipes", "assay": "Caged grassland treatment, mortality of grasshoppers", "conditions": "for Effectiveness (%) against the grasshopper Melanoplus Sanquinipes, Persistence of Action 7 DAT / Effectiveness (%) against the grasshopper Melanoplus Sanquinipes, Persistence of Action 15 DAT / Effectiveness (%) against the grasshopper Melanoplus Sanquinipes, Persistence of Action 28 DAT: infestation renewed 2 days before", "description": "A zone of grassland is treated under controlled conditions, using cages to limit the space of movement of the insects. This zone is infested at a rate of 40 grasshoppers (Melanoplus sanguinipes) per m^2. For experimental purposes, the infestation is renewed 2 days before each observation of the effectiveness of the products, without performing a new insecticide treatment. The results are observed by performing mortality measurements (=percentage of grasshoppers killed). A remarkable persistence of action is observed."}, "Schistocerca gregaria": {"system": "Schistocerca gregaria", "assay": "Grassland treatment, mortality of locusts", "conditions": "for Effectiveness (%) against the locust (Schistocerca gregaria), Persistence of action 7 DAT / Effectiveness (%) against the locust (Schistocerca gregaria), Persistence of action 14 DAT / Effectiveness (%) against the locust (Schistocerca gregaria), Persistence of action 18 DAT: infestation renewed 2 days before", "source_text": "as §1, with “One treats a zone” for “A zone”, “locusts (Schistocerca gregaria)” for “locusts (Chortoicetes terminifera)”, “per m^2. For experimental purposes,” for “per m2 is treated, and”"}},
  "data": [
    {"smiles": "N#Cc1nn(-c2c(Cl)cc(C(F)(F)F)cc2Cl)c(N)c1[S+]([O-])C(F)(F)F", "note": "(centres unmarked) [Product A, 1-[2,6-dichloro-4-CF3-phenyl)-3-cyano-4-CF3SO-5-NH2-pyrazole]", "values": [
      {"measurement": "Effectiveness (%) against the locust Chortoicetes terminifera, Immediate Action 1 DAT Adults", "setting": "Chortoicetes terminifera; 3.1 g product A per hectare", "value": 58, "unit": "%"},
      {"measurement": "Effectiveness (%) against the locust Chortoicetes terminifera, Immediate Action 1 DAT Nymphs", "setting": "Chortoicetes terminifera; 3.1 g product A per hectare", "value": 70, "unit": "%"},
      {"measurement": "Effectiveness (%) against the locust Chortoicetes terminifera, Persistence of action 5 DAT", "setting": "Chortoicetes terminifera; 3.1 g product A per hectare", "value": 96, "unit": "%"},
      {"measurement": "Effectiveness (%) against the locust Chortoicetes terminifera, Persistence of action 10 DAT", "setting": "Chortoicetes terminifera; 3.1 g product A per hectare", "value": 90, "unit": "%"},
      {"measurement": "Effectiveness (%) against the locust Chortoicetes terminifera, Persistence of action 20 DAT", "setting": "Chortoicetes terminifera; 3.1 g product A per hectare", "value": 74, "unit": "%"},
      {"measurement": "Effectiveness (%) against the locust Chortoicetes terminifera, Persistence of action 30 DAT", "setting": "Chortoicetes terminifera; 3.1 g product A per hectare", "value": 55, "unit": "%"},
      {"measurement": "Effectiveness (%) against the locust Chortoicetes terminifera, Immediate Action 1 DAT Adults", "setting": "Chortoicetes terminifera; 6.25 g product A per hectare", "value": 93, "unit": "%"},
      {"measurement": "Effectiveness (%) against the locust Chortoicetes terminifera, Immediate Action 1 DAT Nymphs", "setting": "Chortoicetes terminifera; 6.25 g product A per hectare", "value": 100, "unit": "%"},
      {"measurement": "Effectiveness (%) against the locust Chortoicetes terminifera, Persistence of action 5 DAT", "setting": "Chortoicetes terminifera; 6.25 g product A per hectare", "value": 100, "unit": "%"},
      {"measurement": "Effectiveness (%) against the locust Chortoicetes terminifera, Persistence of action 10 DAT", "setting": "Chortoicetes terminifera; 6.25 g product A per hectare", "value": 98, "unit": "%"},
      {"measurement": "Effectiveness (%) against the locust Chortoicetes terminifera, Persistence of action 20 DAT", "setting": "Chortoicetes terminifera; 6.25 g product A per hectare", "value": 93, "unit": "%"},
      {"measurement": "Effectiveness (%) against the locust Chortoicetes terminifera, Persistence of action 30 DAT", "setting": "Chortoicetes terminifera; 6.25 g product A per hectare", "value": 80, "unit": "%"},
      {"measurement": "Effectiveness (%) against the locust Chortoicetes terminifera, Immediate Action 1 DAT Adults", "setting": "Chortoicetes terminifera; 12.5 g product A per hectare", "value": 100, "unit": "%"},
      {"measurement": "Effectiveness (%) against the locust Chortoicetes terminifera, Immediate Action 1 DAT Nymphs", "setting": "Chortoicetes terminifera; 12.5 g product A per hectare", "value": 100, "unit": "%"},
      {"measurement": "Effectiveness (%) against the locust Chortoicetes terminifera, Persistence of action 5 DAT", "setting": "Chortoicetes terminifera; 12.5 g product A per hectare", "value": 100, "unit": "%"},
      {"measurement": "Effectiveness (%) against the locust Chortoicetes terminifera, Persistence of action 10 DAT", "setting": "Chortoicetes terminifera; 12.5 g product A per hectare", "value": 100, "unit": "%"},
      {"measurement": "Effectiveness (%) against the locust Chortoicetes terminifera, Persistence of action 20 DAT", "setting": "Chortoicetes terminifera; 12.5 g product A per hectare", "value": 96, "unit": "%"},
      {"measurement": "Effectiveness (%) against the locust Chortoicetes terminifera, Persistence of action 30 DAT", "setting": "Chortoicetes terminifera; 12.5 g product A per hectare", "value": 82, "unit": "%"},
      {"measurement": "Effectiveness (%) against the locust Chortoicetes terminifera, Immediate Action 1 DAT Adults", "setting": "Chortoicetes terminifera; 25 g product A per hectare", "value": 100, "unit": "%"},
      {"measurement": "Effectiveness (%) against the locust Chortoicetes terminifera, Immediate Action 1 DAT Nymphs", "setting": "Chortoicetes terminifera; 25 g product A per hectare", "value": 100, "unit": "%"},
      {"measurement": "Effectiveness (%) against the locust Chortoicetes terminifera, Persistence of action 5 DAT", "setting": "Chortoicetes terminifera; 25 g product A per hectare", "value": 100, "unit": "%"},
      {"measurement": "Effectiveness (%) against the locust Chortoicetes terminifera, Persistence of action 10 DAT", "setting": "Chortoicetes terminifera; 25 g product A per hectare", "value": 100, "unit": "%"},
      {"measurement": "Effectiveness (%) against the locust Chortoicetes terminifera, Persistence of action 20 DAT", "setting": "Chortoicetes terminifera; 25 g product A per hectare", "value": 100, "unit": "%"},
      {"measurement": "Effectiveness (%) against the locust Chortoicetes terminifera, Persistence of action 30 DAT", "setting": "Chortoicetes terminifera; 25 g product A per hectare", "value": 96, "unit": "%"},
      {"measurement": "Effectiveness (%) against the grasshopper Melanoplus Sanquinipes, Immediate Action 1 DAT", "setting": "Melanoplus sanguinipes; 6.2 g Product A per hectare", "value": 87, "unit": "%"},
      {"measurement": "Effectiveness (%) against the grasshopper Melanoplus Sanquinipes, Persistence of Action 7 DAT", "setting": "Melanoplus sanguinipes; 6.2 g Product A per hectare", "value": 98, "unit": "%"},
      {"measurement": "Effectiveness (%) against the grasshopper Melanoplus Sanquinipes, Persistence of Action 15 DAT", "setting": "Melanoplus sanguinipes; 6.2 g Product A per hectare", "value": 93, "unit": "%"},
      {"measurement": "Effectiveness (%) against the grasshopper Melanoplus Sanquinipes, Persistence of Action 28 DAT", "setting": "Melanoplus sanguinipes; 6.2 g Product A per hectare", "value": 38, "unit": "%"},
      {"measurement": "Effectiveness (%) against the grasshopper Melanoplus Sanquinipes, Immediate Action 1 DAT", "setting": "Melanoplus sanguinipes; 12.5 g Product A per hectare", "value": 93, "unit": "%"},
      {"measurement": "Effectiveness (%) against the grasshopper Melanoplus Sanquinipes, Persistence of Action 7 DAT", "setting": "Melanoplus sanguinipes; 12.5 g Product A per hectare", "value": 100, "unit": "%"},
      {"measurement": "Effectiveness (%) against the grasshopper Melanoplus Sanquinipes, Persistence of Action 15 DAT", "setting": "Melanoplus sanguinipes; 12.5 g Product A per hectare", "value": 100, "unit": "%"},
      {"measurement": "Effectiveness (%) against the grasshopper Melanoplus Sanquinipes, Persistence of Action 28 DAT", "setting": "Melanoplus sanguinipes; 12.5 g Product A per hectare", "value": 69, "unit": "%"},
      {"measurement": "Effectiveness (%) against the grasshopper Melanoplus Sanquinipes, Immediate Action 1 DAT", "setting": "Melanoplus sanguinipes; 25 g Product A per hectare", "value": 98, "unit": "%"},
      {"measurement": "Effectiveness (%) against the grasshopper Melanoplus Sanquinipes, Persistence of Action 7 DAT", "setting": "Melanoplus sanguinipes; 25 g Product A per hectare", "value": 100, "unit": "%"},
      {"measurement": "Effectiveness (%) against the grasshopper Melanoplus Sanquinipes, Persistence of Action 15 DAT", "setting": "Melanoplus sanguinipes; 25 g Product A per hectare", "value": 100, "unit": "%"},
      {"measurement": "Effectiveness (%) against the grasshopper Melanoplus Sanquinipes, Persistence of Action 28 DAT", "setting": "Melanoplus sanguinipes; 25 g Product A per hectare", "value": 93, "unit": "%"},
      {"measurement": "Effectiveness (%) against the locust (Schistocerca gregaria), Immediate Action 1 DAT", "setting": "Schistocerca gregaria; 2.5 g product A per hectare", "value": 58, "unit": "%"},
      {"measurement": "Effectiveness (%) against the locust (Schistocerca gregaria), Immediate Action 2 DAT", "setting": "Schistocerca gregaria; 2.5 g product A per hectare", "value": 72, "unit": "%"},
      {"measurement": "Effectiveness (%) against the locust (Schistocerca gregaria), Persistence of action 7 DAT", "setting": "Schistocerca gregaria; 2.5 g product A per hectare", "value": 88, "unit": "%"},
      {"measurement": "Effectiveness (%) against the locust (Schistocerca gregaria), Persistence of action 14 DAT", "setting": "Schistocerca gregaria; 2.5 g product A per hectare", "value": 72, "unit": "%"},
      {"measurement": "Effectiveness (%) against the locust (Schistocerca gregaria), Persistence of action 18 DAT", "setting": "Schistocerca gregaria; 2.5 g product A per hectare", "value": 56, "unit": "%"},
      {"measurement": "Effectiveness (%) against the locust (Schistocerca gregaria), Immediate Action 1 DAT", "setting": "Schistocerca gregaria; 5 g product A per hectare", "value": 82, "unit": "%"},
      {"measurement": "Effectiveness (%) against the locust (Schistocerca gregaria), Immediate Action 2 DAT", "setting": "Schistocerca gregaria; 5 g product A per hectare", "value": 93, "unit": "%"},
      {"measurement": "Effectiveness (%) against the locust (Schistocerca gregaria), Persistence of action 7 DAT", "setting": "Schistocerca gregaria; 5 g product A per hectare", "value": 100, "unit": "%"},
      {"measurement": "Effectiveness (%) against the locust (Schistocerca gregaria), Persistence of action 14 DAT", "setting": "Schistocerca gregaria; 5 g product A per hectare", "value": 93, "unit": "%"},
      {"measurement": "Effectiveness (%) against the locust (Schistocerca gregaria), Persistence of action 18 DAT", "setting": "Schistocerca gregaria; 5 g product A per hectare", "value": 89, "unit": "%"},
      {"measurement": "Effectiveness (%) against the locust (Schistocerca gregaria), Immediate Action 1 DAT", "setting": "Schistocerca gregaria; 10 g product A per hectare", "value": 96, "unit": "%"},
      {"measurement": "Effectiveness (%) against the locust (Schistocerca gregaria), Immediate Action 2 DAT", "setting": "Schistocerca gregaria; 10 g product A per hectare", "value": 100, "unit": "%"},
      {"measurement": "Effectiveness (%) against the locust (Schistocerca gregaria), Persistence of action 7 DAT", "setting": "Schistocerca gregaria; 10 g product A per hectare", "value": 100, "unit": "%"},
      {"measurement": "Effectiveness (%) against the locust (Schistocerca gregaria), Persistence of action 14 DAT", "setting": "Schistocerca gregaria; 10 g product A per hectare", "value": 98, "unit": "%"},
      {"measurement": "Effectiveness (%) against the locust (Schistocerca gregaria), Persistence of action 18 DAT", "setting": "Schistocerca gregaria; 10 g product A per hectare", "value": 92, "unit": "%"},
      {"measurement": "Effectiveness (%) against the locust (Schistocerca gregaria), Immediate Action 1 DAT", "setting": "Schistocerca gregaria; 20 g product A per hectare", "value": 100, "unit": "%"},
      {"measurement": "Effectiveness (%) against the locust (Schistocerca gregaria), Immediate Action 2 DAT", "setting": "Schistocerca gregaria; 20 g product A per hectare", "value": 100, "unit": "%"},
      {"measurement": "Effectiveness (%) against the locust (Schistocerca gregaria), Persistence of action 7 DAT", "setting": "Schistocerca gregaria; 20 g product A per hectare", "value": 100, "unit": "%"},
      {"measurement": "Effectiveness (%) against the locust (Schistocerca gregaria), Persistence of action 14 DAT", "setting": "Schistocerca gregaria; 20 g product A per hectare", "value": 100, "unit": "%"},
      {"measurement": "Effectiveness (%) against the locust (Schistocerca gregaria), Persistence of action 18 DAT", "setting": "Schistocerca gregaria; 20 g product A per hectare", "value": 98, "unit": "%"}
    ]}
  ]
}
